Reference: publication PMC7038240 (Antimicrobial Agents and Chemotherapy, 2020)
Like-named read-outs stand apart in the source and are kept apart here.

Legend:
[1] = molecular target: T1, KPC-2 (Klebsiella pneumoniae, UniProt Q9F663); test: biochemical
Experimental: (§5) A reversible two-step inhibition model was fit to the data.
(§6) Pseudo-first-order rate constants of enzyme inactivation (kobs) were determined in the presence of various inhibitor concentrations by fitting equation 2 to the time courses.(2) P=Vst+(V0−Vs)(1−e^−kt)/k where P is product, Vs is rate at steady state, t is time, V0 is initial velocity, and k is rate of inactivation. A plot of kobs versus the inhibitor concentrations generated a linear plot with a slope of (k2/Ki) and a y intercept of k−2 (equation 3). The reported values were corrected for the substrate concentration and the Km for each substrate-enzyme combination, as defined by the 1 + ([S]/Km) term in equation 4, where S is the substrate concentration, used to obtain the second-order rate constant k2/Ki and the off rate (k−2). The error values reported are standard errors from the fit.(3) kobs=k−2+(k2/Ki)[I]/[1+([S]/Km)]
(§7) The percentage of enzyme activity at each assay point was determined by comparison to the activity of the enzyme in the absence of inhibitor, and the recovery of enzymatic activity was fit to a single exponential with the associated standard deviation.

[2] = molecular target: NDM-1 (Klebsiella pneumoniae, UniProt C7C422); test: Steady-state competitive inhibition, cefotaxime substrate
[3] = molecular target: T2, P99 AmpC (Enterobacter cloacae, UniProt P05364); conditions: half-life of active-site occupancy
Experimental: as §5, §6, §7

[4] = molecular target: T3, CTX-M-15 (Escherichia coli, UniProt Q9EXV5); test: biochemical
Experimental: as §5, §6, §7

[5] = molecular target: T3, CTX-M-15; conditions: half-life of active-site occupancy
Experimental: as §5, §6, §7

[6] = molecular target: OXA-48 (Klebsiella pneumoniae, UniProt Q6XEC0); test: Ki* determination, imipenem substrate
Experimental: as §6

[7] = molecular target: T1, KPC-2; conditions: half-life of active-site occupancy
Experimental: as §5, §6, §7

[8] = molecular target: IMP-1 (Serratia marcescens, UniProt P52699); test: Inhibition assay, nitrocefin substrate; conditions: class B
[9] = molecular target: VIM-2 (Escherichia coli, UniProt Q5U7L7); test: Steady-state competitive inhibition, nitrocefin substrate
[10] = test system: VIM-2 and NDM-1 metallo-β-lactamases; test: Inhibition of VIM-2 and NDM-1 MBLs (modality, reversibility, range); conditions: up to 50 μM
[11] = molecular target: T2, P99 AmpC; test: biochemical
Experimental: as §5, §6, §7

[12] = test system: serine β-lactamases (SBLs); test: Kinetic parameters and Ki, ranges over serine β-lactamases; conditions: CTX-M-15, P99 AmpC, and KPC-2
Experimental: as §5, §6, §7

[13] = test system: E. coli DH5α producing individual β-lactamases; test: Broth microdilution MIC in engineered strains (BLI fixed at 4 μg/ml); format: cell-based, Escherichia coli; conditions: panel of 34 strains
Experimental: The spectrum of antibacterial activity of cefepime-taniborbactam and the breadth of inhibitory activity of this next-generation cyclic boronate BLI were assessed in 34 engineered E. coli strains each overproducing an individual β-lactamase and directly compared to those of the clinically approved agent ceftazidime-avibactam. In this manner, the antibacterial activity of the BL-BLI combinations relative to that of the partnered cephalosporins alone provided a quantitative measure of β-lactam potentiation that directly reflects the levels of inhibition of β-lactamase function achieved by addition of BLI. The BLI concentration was fixed at 4 μg/ml, as described in Materials and Methods.
The isogenic strains were used to establish a spectrum of inhibitory activity against 34 β-lactamases that were engineered into E. coli DH5α cells carrying chromosomal AmpC (ESC-1), a non-ESBL enzyme unable to hydrolyze these third- or fourth-generation cephalosporins. […]. The DNA fragments containing the promoter, the signal sequence, and each β-lactamase-coding gene were synthesized and cloned into pTwist Chlor High Copy in DH5α at Twist Bioscience. The individual expression plasmids along with their GenBank accession numbers are listed in Table S2 in the supplemental material and below. The protein sequences of β-lactamases were obtained from the Beta-Lactamase DataBase (www.bldb.eu) ([47]). Expression of the β-lactamases was confirmed by verifying decreased susceptibility to example test antibiotics that are known substrates of the enzymes. E. coli DH5α carrying pTU501, which expressed only the TEM-1 signal sequence from the bla promoter, was used as a control. The plasmid sequences are available through GenBank (Table S2).
(§1) The in vitro antibacterial activity of the β-lactams alone or in combination with the BLIs was determined in cation-adjusted Mueller-Hinton broth (CAMHB) microdilution assays according to CLSI recommendations ([51]). […]. The inocula for the broth microdilution assays were prepared by the broth culture method ([51]). […]

[14] = test system: Enterobacterales clinical isolates; test: MIC distributions in panels of clinical isolates (MIC50, MIC90, % susceptible); format: cell-based
Experimental: (§2) The antibacterial activity of the cephalosporins alone was included to ascertain the level of potentiation by the partnered BLI. BLIs were tested at a fixed concentration of 4 μg/ml in all combinations except cefepime-tazobactam, where tazobactam was fixed at a concentration of 8 μg/ml ([38]).
(§3) The in vitro antibacterial activity of the β-lactams alone or in combination with the BLIs was determined in cation-adjusted Mueller-Hinton broth (CAMHB) microdilution assays according to CLSI recommendations ([51]). […] The inocula for the broth microdilution assays were prepared by the broth culture method ([51]).

[15] = test system: DrugMatrixScreen panel of pharmacological targets; test: DrugMatrixScreen panel (binding, enzymatic, uptake assays; Eurofins/Panlabs); conditions: 100 μM
[16] = test system: P. aeruginosa clinical isolates; test: microbe, parasite or virus in culture; format: cell-based, Pseudomonas aeruginosa
Experimental: as §2, §3

[17] = molecular target: SHV-5 (Klebsiella pneumoniae, UniProt P0A3M1); test: Ki* determination, cefotaxime substrate
Experimental: as §6

[18] = test system: P. aeruginosa; test: microbe, parasite or virus in culture; format: cell-based; conditions: Pseudomonas aeruginosa, read-out: MIC
From the text: (§4) The antibacterial activity of cefepime-taniborbactam was compared to that of ceftazidime-avibactam, ceftolozane-tazobactam, and cefepime-tazobactam against a diverse panel of Enterobacterales and P. aeruginosa clinical isolates with defined β-lactamase subtypes (see Table S1 in the supplemental material). IMP-producing strains were excluded, as none of the BLI-protected cephalosporins inhibited IMP sufficiently to provide a clinically relevant rescue of the partner β-lactam, a characteristic also shared by approved BLI-protected carbapenems (meropenem-vaborbactam and imipenem-relebactam). […] The antibacterial activity of the cephalosporins alone was included to ascertain the level of potentiation by the partnered BLI. BLIs were tested at a fixed concentration of 4 μg/ml in all combinations except cefepime-tazobactam, where tazobactam was fixed at a concentration of 8 μg/ml ([38]). The collection comprised 143 clinical isolates collected from 2005 and 2018.
as §1

[19] = test system: K. pneumoniae; test: microbe, parasite or virus in culture; format: cell-based; conditions: Klebsiella pneumoniae, read-out: MIC
From the text: as §4, §1

[20] = test system: E. coli; test: microbe, parasite or virus in culture; format: cell-based; conditions: Escherichia coli, read-out: MIC
From the text: as §4, §1

[21] = test system: E. coli, K. pneumoniae, and P. aeruginosa reference type isolates; test: MIC against panel of seven reference type isolates; format: cell-based
Experimental: […]. This panel encompassed 3 E. coli, 2 K. pneumoniae, and 2 P. aeruginosa isolates and included four quality control (QC) isolates for broth microdilution ([37]). […]. Among the β-lactamase-producing Enterobacterales isolates, E. coli NCTC 13353 producing CTX-M-15 and K. pneumoniae BAA-1705 producing KPC-2 are routine QC isolates used for the testing of cefepime-taniborbactam ([37]). […].
as §1

IMP-1, sequence (P52699 19-246 limits assumed): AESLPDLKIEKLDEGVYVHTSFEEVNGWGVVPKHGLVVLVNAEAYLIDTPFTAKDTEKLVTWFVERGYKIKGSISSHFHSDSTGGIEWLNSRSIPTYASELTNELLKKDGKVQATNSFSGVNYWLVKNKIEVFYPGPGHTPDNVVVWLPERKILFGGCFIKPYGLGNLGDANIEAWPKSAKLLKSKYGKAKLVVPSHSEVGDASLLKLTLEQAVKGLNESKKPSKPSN
T3 sequence (Q9EXV5 29-291, species assumed): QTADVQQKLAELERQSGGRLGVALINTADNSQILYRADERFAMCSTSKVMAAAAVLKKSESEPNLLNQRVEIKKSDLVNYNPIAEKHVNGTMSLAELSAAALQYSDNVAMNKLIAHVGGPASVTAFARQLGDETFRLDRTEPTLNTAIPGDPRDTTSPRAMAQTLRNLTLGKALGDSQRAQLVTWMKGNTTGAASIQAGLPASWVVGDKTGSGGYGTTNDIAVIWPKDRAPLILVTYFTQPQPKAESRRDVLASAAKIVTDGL
T1 sequence (Q9F663 25-293, looked up, species assumed): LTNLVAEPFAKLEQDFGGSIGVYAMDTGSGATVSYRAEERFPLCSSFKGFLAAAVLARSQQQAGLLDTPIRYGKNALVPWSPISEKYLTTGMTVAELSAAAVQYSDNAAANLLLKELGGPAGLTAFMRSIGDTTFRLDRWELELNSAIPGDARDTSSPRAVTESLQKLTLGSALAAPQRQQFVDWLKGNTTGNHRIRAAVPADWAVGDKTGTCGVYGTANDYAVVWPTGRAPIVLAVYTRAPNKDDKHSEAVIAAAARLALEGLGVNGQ
T2 sequence (P05364 21-381): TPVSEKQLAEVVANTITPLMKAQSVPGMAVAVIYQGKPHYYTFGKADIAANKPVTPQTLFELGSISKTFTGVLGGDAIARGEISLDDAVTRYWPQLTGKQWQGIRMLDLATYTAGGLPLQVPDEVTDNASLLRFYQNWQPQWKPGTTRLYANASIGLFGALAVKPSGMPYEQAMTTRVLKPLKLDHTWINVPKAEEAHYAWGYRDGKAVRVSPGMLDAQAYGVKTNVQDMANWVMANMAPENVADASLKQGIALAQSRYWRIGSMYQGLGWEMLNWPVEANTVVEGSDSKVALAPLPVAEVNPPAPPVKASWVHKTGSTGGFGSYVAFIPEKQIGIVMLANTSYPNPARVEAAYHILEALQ
OXA-48, sequence (Q6XEC0 23-265, looked up, species assumed): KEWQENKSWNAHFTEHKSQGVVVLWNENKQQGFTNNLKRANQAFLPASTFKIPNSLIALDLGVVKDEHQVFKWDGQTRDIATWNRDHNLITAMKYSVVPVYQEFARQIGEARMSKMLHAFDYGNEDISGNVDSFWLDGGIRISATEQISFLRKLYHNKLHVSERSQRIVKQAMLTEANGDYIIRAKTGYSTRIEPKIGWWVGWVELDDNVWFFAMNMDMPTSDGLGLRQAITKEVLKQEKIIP
NDM-1, sequence (C7C422 29-270, looked up, species assumed): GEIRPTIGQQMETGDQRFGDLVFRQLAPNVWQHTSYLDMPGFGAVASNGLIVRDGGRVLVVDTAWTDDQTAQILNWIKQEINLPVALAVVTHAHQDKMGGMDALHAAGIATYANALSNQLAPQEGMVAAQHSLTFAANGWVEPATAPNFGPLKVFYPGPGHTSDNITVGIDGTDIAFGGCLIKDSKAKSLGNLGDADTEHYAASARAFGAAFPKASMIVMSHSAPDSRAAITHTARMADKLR
SHV-5, sequence (P0A3M1 22-286): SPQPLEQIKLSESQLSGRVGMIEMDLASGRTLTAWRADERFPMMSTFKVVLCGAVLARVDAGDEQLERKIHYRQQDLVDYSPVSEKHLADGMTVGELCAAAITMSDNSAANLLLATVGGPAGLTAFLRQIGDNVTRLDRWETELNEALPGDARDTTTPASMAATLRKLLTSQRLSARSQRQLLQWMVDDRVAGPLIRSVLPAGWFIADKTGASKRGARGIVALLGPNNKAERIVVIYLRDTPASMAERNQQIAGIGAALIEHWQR

| SMILES | Ki [1] | Ki [2] | t1/2 [3] | Ki [4] | t1/2 [5] | Ki [6] | t1/2 [7] | Ki [8] | Ki [9] | inhibition of MBLs [10] | Ki [11] | modal potentiation of partner cephalosporin MIC [13] | further results |
| --- | --- | --- | --- | --- | --- | --- | --- | --- | --- | --- | --- | --- | --- |
| O=C(O)C[C@@H]1CC[C@H](NC(=O)Cc2cccs2)B(O)O1 [Vaborbactam] | 0.022 ± 0.002 µM | > 30 µM | 32 ± 3 min | 0.158 ± 0.006 µM | 5 ± 0.2 min | 0.35 ± 0.007 µM | 21 ± 2 min | > 30 µM | > 30 µM | no significant inhibition | 0.053 ± 0.004 µM | – | koff [1]: 0.00054 ± 5e-05 s⁻¹; kinact/KI ([1]; pH 7, read-out: k2/Ki): 1200 ± 100 M⁻¹ s⁻¹; koff [4]: 0.0023 ± 9e-05 s⁻¹; kinact/KI ([4]; pH 7, read-out: k2/Ki): 1100 ± 100 M⁻¹ s⁻¹; koff [11]: 0.00037 ± 3e-05 s⁻¹; kinact/KI ([11]; pH 7, read-out: k2/Ki): 1800 ± 100 M⁻¹ s⁻¹; second-order rate constants (k2/Ki), order of magnitude [12]: ~10^3 M^−1 s^−1 |
| NC(=O)[C@@H]1CC[C@@H]2CN1C(=O)N2OS(=O)(=O)O [Avibactam] | – | > 30 µM | 249 ± 19 min | 0.011 ± 0.001 µM | 29 ± 1 min | – | 66 ± 4 min | > 30 µM | > 30 µM | no significant inhibition | 0.013 ± 0.0003 µM | 64 fold | – |
| NCCN[C@H]1CC[C@H](CC(=O)N[C@H]2Cc3cccc(C(=O)O)c3OB2O)CC1 [Taniborbactam] | 0.004 ± 0.001 µM | – | 30 ± 3 min | 0.017 ± 0.002 µM | 34 ± 2 min | 0.35 ± 0.007 µM | 105 ± 5 min | ≥ 30 µM | 0.019 ± 0.001 µM | – | 0.002 ± 0.0003 µM | 512 fold | MIC90 [14]: 1 µg/mL; inhibition, off-target ([15]; 128 of 129 in vitro assays): ≤ 23%; inhibition ([15]; the one exception, a β-lactamase): > 50%; MIC90 ([16]; Pseudomonas aeruginosa, all 41 isolates of P. aeruginosa): 4 µg/mL; Ki [17]: 0.003 ± 0.0002 µM; MIC ([18]; ATCC27853, P. aeruginosa ATCC 27853, PDC-5): 1020 µg/mL; MIC ([18]; P. aeruginosa CDC-0457, VIM): 1020 µg/mL; MIC ([19]; ATCC13883, K. pneumoniae ATCC 13883, enzyme content None): 512 µg/mL; MIC ([19]; BAA1705, K. pneumoniae BAA 1705, KPC-2): 1020 µg/mL; MIC ([20]; ATCC25922, E. coli ATCC 25922, enzyme content None): 512 µg/mL; MIC ([20]; E. coli CDC-0452, NDM): 512 µg/mL; MIC ([20]; NCTC13353, E. coli NCTC 13353, CTX-M-15): 512 µg/mL; MIC [21]: ≥ 512 µg/mL; antibacterial activity alone ([21]; taniborbactam alone): lacks antibacterial activity |
| C[C@]1(Cn2ccnn2)[C@H](C(=O)O)N2C(=O)C[C@H]2S1(=O)=O [tazobactam] | – | – | – | – | – | – | – | – | – | – | – | – | fold reduction of cefepime MIC90 by addition of BLI ([16]; 14 isolates, subdivision 3): 2 fold; fold reduction of ceftolozane MIC90 by addition of BLI ([16]; 14 isolates, subdivision 3): 4 fold |
